How the values were obtained:
Conditions in all cases: Compound concentration 10.0 uM
[1] = biological target: T1, Alpha-2A adrenergic receptor (Homo sapiens) (UniProt P08913); assay: alpha 2A Eurofins Bayer panel
T1 sequence (whole entry): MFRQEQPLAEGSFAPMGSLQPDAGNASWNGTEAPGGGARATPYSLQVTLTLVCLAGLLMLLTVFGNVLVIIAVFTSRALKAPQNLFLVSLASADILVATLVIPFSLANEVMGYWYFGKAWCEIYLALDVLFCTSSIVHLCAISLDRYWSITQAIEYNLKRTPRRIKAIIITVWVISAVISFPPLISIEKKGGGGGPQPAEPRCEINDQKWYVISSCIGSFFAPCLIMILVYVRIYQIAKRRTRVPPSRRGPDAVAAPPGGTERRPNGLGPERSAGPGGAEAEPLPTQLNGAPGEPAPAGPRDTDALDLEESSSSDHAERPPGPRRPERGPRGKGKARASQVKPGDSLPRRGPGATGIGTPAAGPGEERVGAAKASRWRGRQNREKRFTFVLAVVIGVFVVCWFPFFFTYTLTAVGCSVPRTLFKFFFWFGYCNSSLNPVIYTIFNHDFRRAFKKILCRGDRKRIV

[2] = biological target: T2, 5-hydroxytryptamine receptor 1A (Homo sapiens) (UniProt P08908); assay: 5-HT1A Eurofins Bayer panel
T2 sequence (whole entry): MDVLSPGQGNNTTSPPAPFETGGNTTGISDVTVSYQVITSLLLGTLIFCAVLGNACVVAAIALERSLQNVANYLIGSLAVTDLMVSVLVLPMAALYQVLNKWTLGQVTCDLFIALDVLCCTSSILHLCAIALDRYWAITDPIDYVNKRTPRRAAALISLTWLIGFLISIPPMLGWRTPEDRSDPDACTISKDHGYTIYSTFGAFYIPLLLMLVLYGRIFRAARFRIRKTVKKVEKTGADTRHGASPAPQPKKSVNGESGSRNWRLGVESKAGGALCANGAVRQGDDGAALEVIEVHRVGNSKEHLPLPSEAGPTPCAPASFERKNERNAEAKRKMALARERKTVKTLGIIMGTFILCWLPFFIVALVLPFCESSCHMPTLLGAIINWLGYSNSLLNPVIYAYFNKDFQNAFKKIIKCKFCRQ

[3] = biological target: Prostaglandin E2 receptor EP3 subtype (Homo sapiens) (UniProt P43115); assay: EP3 Eurofins Bayer panel
[4] = biological target: Histamine H3 receptor (Homo sapiens) (UniProt Q9Y5N1); assay: H3 Eurofins Bayer panel
[5] = biological target: 5-hydroxytryptamine receptor 2B (Homo sapiens, UniProt P41595); assay: 5-HT2B Eurofins Bayer panel
[6] = biological target: Adenosine receptor A3 (Homo sapiens) (UniProt P0DMS8); assay: A3 Eurofins Bayer panel
[7] = biological target: T3, Alpha-1A adrenergic receptor (Homo sapiens) (UniProt P35348); assay: alpha 1A Eurofins Bayer panel
T3 sequence (whole entry): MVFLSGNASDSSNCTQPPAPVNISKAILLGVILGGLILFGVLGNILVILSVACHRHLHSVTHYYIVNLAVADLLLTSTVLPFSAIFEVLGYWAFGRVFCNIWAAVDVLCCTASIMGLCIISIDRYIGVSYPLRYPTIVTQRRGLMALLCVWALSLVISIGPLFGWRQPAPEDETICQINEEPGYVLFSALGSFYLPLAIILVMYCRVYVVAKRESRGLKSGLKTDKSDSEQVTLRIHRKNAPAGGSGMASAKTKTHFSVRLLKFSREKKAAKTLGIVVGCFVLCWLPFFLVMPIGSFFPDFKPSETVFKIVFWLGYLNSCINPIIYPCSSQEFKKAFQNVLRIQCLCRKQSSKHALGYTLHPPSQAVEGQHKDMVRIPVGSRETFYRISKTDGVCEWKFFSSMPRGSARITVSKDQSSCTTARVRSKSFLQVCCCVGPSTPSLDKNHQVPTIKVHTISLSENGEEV

[8] = biological target: Histamine H2 receptor (Homo sapiens) (UniProt P25021); assay: H2 Eurofins Bayer panel
Sequence of Histamine H2 receptor (Homo sapiens) (P25021 whole entry): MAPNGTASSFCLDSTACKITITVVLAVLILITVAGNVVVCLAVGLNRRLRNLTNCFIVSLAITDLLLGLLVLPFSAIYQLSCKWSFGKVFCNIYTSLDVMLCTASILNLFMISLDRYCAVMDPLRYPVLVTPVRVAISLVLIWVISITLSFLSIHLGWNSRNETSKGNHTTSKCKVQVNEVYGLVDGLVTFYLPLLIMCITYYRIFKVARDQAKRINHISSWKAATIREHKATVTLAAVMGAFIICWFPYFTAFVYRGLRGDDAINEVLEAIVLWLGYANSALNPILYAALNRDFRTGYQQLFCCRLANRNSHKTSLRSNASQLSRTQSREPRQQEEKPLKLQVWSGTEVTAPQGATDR

Sequence of Adenosine receptor A3 (Homo sapiens) (P0DMS8 whole entry): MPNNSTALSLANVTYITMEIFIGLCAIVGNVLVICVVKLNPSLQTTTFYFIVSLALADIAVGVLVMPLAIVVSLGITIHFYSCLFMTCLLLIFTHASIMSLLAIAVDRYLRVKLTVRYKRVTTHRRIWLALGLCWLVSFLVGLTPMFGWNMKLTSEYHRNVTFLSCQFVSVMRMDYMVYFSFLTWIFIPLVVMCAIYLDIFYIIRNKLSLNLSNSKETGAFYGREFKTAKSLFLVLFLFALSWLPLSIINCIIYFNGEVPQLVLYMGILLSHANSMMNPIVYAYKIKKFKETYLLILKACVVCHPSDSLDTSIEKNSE
Sequence of 5-hydroxytryptamine receptor 2B (P41595 whole entry): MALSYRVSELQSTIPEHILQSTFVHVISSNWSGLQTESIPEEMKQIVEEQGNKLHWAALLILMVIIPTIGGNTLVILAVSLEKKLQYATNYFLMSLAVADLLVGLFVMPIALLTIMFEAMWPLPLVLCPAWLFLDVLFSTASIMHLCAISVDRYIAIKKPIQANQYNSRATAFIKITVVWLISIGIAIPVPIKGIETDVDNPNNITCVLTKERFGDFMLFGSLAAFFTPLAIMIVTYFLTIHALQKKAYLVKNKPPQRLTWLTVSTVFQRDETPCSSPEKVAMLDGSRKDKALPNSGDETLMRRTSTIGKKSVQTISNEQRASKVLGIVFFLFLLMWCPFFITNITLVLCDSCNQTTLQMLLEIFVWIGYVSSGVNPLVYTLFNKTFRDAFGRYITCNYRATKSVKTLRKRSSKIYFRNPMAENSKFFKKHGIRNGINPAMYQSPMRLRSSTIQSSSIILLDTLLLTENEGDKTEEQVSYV
Sequence of Prostaglandin E2 receptor EP3 subtype (Homo sapiens) (P43115 whole entry): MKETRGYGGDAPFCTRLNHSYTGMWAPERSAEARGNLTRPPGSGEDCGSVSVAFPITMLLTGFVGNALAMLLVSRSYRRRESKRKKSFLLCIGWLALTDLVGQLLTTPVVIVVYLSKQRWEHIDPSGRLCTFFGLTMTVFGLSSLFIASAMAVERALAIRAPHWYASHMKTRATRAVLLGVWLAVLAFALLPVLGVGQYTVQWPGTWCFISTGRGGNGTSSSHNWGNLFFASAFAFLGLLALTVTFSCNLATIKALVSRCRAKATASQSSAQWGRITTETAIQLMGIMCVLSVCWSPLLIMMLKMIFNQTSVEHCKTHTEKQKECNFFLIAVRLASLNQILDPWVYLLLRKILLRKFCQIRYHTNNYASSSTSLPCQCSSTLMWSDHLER
Sequence of Histamine H3 receptor (Homo sapiens) (Q9Y5N1 whole entry): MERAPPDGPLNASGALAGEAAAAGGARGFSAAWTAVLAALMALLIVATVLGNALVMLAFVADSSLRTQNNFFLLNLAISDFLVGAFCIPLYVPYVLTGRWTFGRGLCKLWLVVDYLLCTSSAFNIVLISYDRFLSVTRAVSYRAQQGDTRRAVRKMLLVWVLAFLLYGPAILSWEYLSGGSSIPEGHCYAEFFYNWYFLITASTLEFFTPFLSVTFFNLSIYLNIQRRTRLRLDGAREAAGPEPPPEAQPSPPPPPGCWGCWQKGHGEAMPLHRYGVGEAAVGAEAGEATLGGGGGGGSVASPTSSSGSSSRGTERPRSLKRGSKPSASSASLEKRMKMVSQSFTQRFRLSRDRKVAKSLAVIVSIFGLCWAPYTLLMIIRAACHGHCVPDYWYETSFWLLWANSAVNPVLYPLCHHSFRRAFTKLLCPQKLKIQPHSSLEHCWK

O=C(Nc1cnc(Oc2ccc(F)cc2)nc1)N1CCc2ncccc2[C@@H]1c1ccc(F)cc1 [BAY-899]
Activation (% of control) [1]: -2% | Inhibition (% of control) [1]: -16% | Activation (% of control) [2]: 1% | Inhibition (% of control) [2]: 0% | Activation (% of control) [3]: -1% | Inhibition (% of control) [3]: -5% | Activation (% of control) [4]: 38% | Inhibition (% of control) [4]: -19% | Activation (% of control) [5]: 1% | Inhibition (% of control) [5]: 18% | Activation (% of control) [6]: 25% | Inhibition (% of control) [6]: -6% | Activation (% of control) [7]: 2% | Inhibition (% of control) [7]: 45% | Activation (% of control) [8]: -2% | Inhibition (% of control) [8]: 34%
